In patent US8685658B2, “Compositions and methods for the treatment of diseases associated with aberrant cilia assembly and regulation” (Fox Chase Cancer Center, priority 2006, dated 2014):

How the values were obtained:
hTERT-RPE1 cells = test: serum-induced ciliary disassembly in ciliated hTERT-RPE1 cells; format: cell-based
Method: hTERT-RPE1 cells were grown in DMEM with 10% fetal bovine serum (FBS). For analysis of ciliary disassembly, cells were plated at 30% confluence in plates containing glass cover slips, and starved for 48 hours (in Opti-MEM or regular DMEM, without added serum) to induce cilia formation, followed by treatments described hereinbelow. For siRNA treatment, cells were initially plated in DMEM/10% FBS in plates containing cover slips, and 12 hours later siRNA transfection was performed in Opti-MEM with Oligofectamine (Invitrogen) according to manufacturer recommendations, and fixed 48 hours after transfection, following treatments indicated in Results. The remaining cells on plate were lysed, then either directly analyzed by Western blot analysis, or used for immunoprecipitation (IP)-kinase reaction to measure AurA activity.
Cells were fixed with 4% paraformaldehyde (10 min) then methanol (5 min), permeabilized with 1% Triton-X100 in PBS, blocked in 1×PBS, 3% BSA, and incubated with antibodies using standard protocols. Primary antibodies included rabbit polyclonal anti-Aurora A and anti-phospho-AuroraA/T288, (Cell Signaling), mouse mAb anti-HEF1 (14A11), polyclonal anti-γ-tubulin (Sigma), anti-α-tubulin mAb (Sigma), anti-acetylated α-tubulin mAb (clone 6-11B-1, Sigma, and clone K(Ac)40 Biomol), anti-IFT88 and anti-IFT20 (gifts of G. Pazour), mouse anti-glutamylated tubulin (Sigma), and anti-HDAC6 (Upstate). Secondary antibodies labeled with Alexa-488, Alexa-568, and Alexa-633, and TOTO-3 dye to stain DNA, were from Molecular Probes/Invitrogen. DNA was co-stained in some experiments by propidium iodine (Sigma) or Draq5 (Alexis), Confocal microscopy was performed using a Radiance 2000 laser scanning confocal microscope ((Carl Zeiss, Thornwood, N.Y.) coupled to a Nikon Eclipse E800 upright microscope (Nikon). Statistical analysis of data by one-way ANOVA was performed using GraphPad Instat 3.0 (San Diego, Calif.).

AurA = biological target: T1, AurA (Homo sapiens, UniProt O14965); test: AurA activation and HEF1 phosphorylation in serum-stimulated hTERT-RPE1 cells (Western blot); format: cell-based; conditions: vs DMSO, 2 and 24 hour time points after serum
T1 construct: endogenous AurA immunoprecipitated from mammalian cells; endogenous in cells; host or cells: hTERT-RPE1
T1 sequence (O14965 1-403): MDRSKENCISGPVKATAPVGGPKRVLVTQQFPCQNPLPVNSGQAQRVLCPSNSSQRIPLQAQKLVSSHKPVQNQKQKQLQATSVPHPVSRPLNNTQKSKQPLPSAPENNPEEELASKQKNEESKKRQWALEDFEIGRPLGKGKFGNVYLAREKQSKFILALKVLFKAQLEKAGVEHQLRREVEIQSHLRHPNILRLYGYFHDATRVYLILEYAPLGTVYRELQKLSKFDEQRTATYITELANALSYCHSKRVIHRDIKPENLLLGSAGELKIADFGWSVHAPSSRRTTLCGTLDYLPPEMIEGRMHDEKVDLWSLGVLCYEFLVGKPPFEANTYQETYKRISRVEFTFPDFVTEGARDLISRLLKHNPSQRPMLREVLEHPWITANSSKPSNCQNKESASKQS
Method: For microinjection, recombinant glutathione-S-transferase (GST), GST fused AurA mutants T288A and D274N) produced from BL21 (DE3) bacteria were purified using the MicroSpin GST Purification Module (Amersham Biotech.). Purified recombinant AurA was purchased from Upstate; this AurA was pre-activated based on incubation with ATP. […] To prepare lysates for Western blotting and IP, mammalian cells were disrupted by M-PER lysis buffer (Pierce) supplemented with EDTA-free protease inhibitor cocktail (Roche). Lysates used for IP were incubated overnight with antibody at 4° C., subsequently incubated for 2 hours with protein A/G-sepharose (Pierce), washed, and resolved by SDS-PAGE. Western blotting was performed using standard procedures and proteins visualized using the West-Pico system (Pierce). Antibodies used included mouse monoclonal antibody (mAb) anti-HEF1 2G9 (Pugacheva and Golemis, 2005), anti-α-tubulin mAb (Sigma), anti-AurA (BD Bioscience) for Western blotting, anti-AurA rabbit polyclonal (Cell Signaling) for IP, anti-Phospho-AurA/T288 (BioLegend), anti-Phospho-AurA/T288 (Cell Signaling), anti-HDAC6 rabbit polyclonal (Upstate; 1:5000), anti-HDAC2 rabbit polyclonal (Invitrogen) and mAb anti-β-actin (AC15, Sigma), anti-IFT88 and anti-IFT20. Secondary horseradish peroxidase (HRP)-conjugated antibodies were from Amersham Biotech. […]

AurA-HDAC6 = biological target: T2, AurA-HDAC6 (Homo sapiens, UniProt O14965); test: AurA-HDAC6 coimmunoprecipitation from hTERT-RPE1 cells; format: cell-based; conditions: pre-treatment of cells with inhibitor
T2 construct: endogenous in cells; host or cells: hTERT-RPE1
T2 sequence (O14965 1-403): T1 sequence (O14965 1-403)
T2 sequence (Q9UBN7 1-1215 partner): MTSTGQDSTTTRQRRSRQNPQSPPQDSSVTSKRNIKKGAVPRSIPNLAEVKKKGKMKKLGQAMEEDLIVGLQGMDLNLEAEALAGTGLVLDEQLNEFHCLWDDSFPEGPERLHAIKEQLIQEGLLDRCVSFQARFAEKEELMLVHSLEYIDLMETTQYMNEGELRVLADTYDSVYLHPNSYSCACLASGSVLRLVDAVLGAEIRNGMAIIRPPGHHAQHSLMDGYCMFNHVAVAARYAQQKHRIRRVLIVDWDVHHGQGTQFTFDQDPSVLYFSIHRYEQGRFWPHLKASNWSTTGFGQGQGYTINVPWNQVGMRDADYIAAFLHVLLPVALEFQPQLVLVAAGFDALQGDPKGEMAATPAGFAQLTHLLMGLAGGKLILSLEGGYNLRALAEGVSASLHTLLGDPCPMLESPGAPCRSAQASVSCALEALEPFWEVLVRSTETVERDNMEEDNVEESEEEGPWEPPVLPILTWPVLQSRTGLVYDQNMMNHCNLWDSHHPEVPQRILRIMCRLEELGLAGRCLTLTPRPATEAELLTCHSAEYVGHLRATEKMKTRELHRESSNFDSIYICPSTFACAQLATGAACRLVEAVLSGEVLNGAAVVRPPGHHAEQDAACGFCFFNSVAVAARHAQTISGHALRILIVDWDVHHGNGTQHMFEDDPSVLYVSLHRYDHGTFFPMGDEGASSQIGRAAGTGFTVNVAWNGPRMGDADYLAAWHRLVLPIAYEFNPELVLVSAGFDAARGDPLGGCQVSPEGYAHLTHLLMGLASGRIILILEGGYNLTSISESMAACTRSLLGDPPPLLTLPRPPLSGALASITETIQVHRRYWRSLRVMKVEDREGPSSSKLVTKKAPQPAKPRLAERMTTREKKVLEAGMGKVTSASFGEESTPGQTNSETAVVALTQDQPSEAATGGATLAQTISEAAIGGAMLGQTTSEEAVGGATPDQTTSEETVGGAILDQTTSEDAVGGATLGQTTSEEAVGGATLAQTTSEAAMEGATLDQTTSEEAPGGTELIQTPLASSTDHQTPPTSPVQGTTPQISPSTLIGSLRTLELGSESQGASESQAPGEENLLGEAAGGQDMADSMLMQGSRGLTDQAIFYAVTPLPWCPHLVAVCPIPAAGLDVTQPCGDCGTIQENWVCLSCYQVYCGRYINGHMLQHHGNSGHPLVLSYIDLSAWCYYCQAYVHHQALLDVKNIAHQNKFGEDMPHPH
Method: For microinjection, recombinant glutathione-S-transferase (GST), GST fused AurA mutants T288A and D274N) produced from BL21 (DE3) bacteria were purified using the MicroSpin GST Purification Module (Amersham Biotech.). Purified recombinant AurA was purchased from Upstate; this AurA was pre-activated based on incubation with ATP. […] To prepare lysates for Western blotting and IP, mammalian cells were disrupted by M-PER lysis buffer (Pierce) supplemented with EDTA-free protease inhibitor cocktail (Roche). Lysates used for IP were incubated overnight with antibody at 4° C., subsequently incubated for 2 hours with protein A/G-sepharose (Pierce), washed, and resolved by SDS-PAGE. Western blotting was performed using standard procedures and proteins visualized using the West-Pico system (Pierce). Antibodies used included mouse monoclonal antibody (mAb) anti-HEF1 2G9 (Pugacheva and Golemis, 2005), anti-α-tubulin mAb (Sigma), anti-AurA (BD Bioscience) for Western blotting, anti-AurA rabbit polyclonal (Cell Signaling) for IP, anti-Phospho-AurA/T288 (BioLegend), anti-Phospho-AurA/T288 (Cell Signaling), anti-HDAC6 rabbit polyclonal (Upstate; 1:5000), anti-HDAC2 rabbit polyclonal (Invitrogen) and mAb anti-β-actin (AC15, Sigma), anti-IFT88 and anti-IFT20. Secondary horseradish peroxidase (HRP)-conjugated antibodies were from Amersham Biotech.

AurB = AurB (Homo sapiens, UniProt Q96GD4); conditions: cited from earlier work
FGFR1 = FGFR1 (Homo sapiens, UniProt P11362); conditions: cited from earlier work
FGFR1, sequence (P11362 22-822, species assumed): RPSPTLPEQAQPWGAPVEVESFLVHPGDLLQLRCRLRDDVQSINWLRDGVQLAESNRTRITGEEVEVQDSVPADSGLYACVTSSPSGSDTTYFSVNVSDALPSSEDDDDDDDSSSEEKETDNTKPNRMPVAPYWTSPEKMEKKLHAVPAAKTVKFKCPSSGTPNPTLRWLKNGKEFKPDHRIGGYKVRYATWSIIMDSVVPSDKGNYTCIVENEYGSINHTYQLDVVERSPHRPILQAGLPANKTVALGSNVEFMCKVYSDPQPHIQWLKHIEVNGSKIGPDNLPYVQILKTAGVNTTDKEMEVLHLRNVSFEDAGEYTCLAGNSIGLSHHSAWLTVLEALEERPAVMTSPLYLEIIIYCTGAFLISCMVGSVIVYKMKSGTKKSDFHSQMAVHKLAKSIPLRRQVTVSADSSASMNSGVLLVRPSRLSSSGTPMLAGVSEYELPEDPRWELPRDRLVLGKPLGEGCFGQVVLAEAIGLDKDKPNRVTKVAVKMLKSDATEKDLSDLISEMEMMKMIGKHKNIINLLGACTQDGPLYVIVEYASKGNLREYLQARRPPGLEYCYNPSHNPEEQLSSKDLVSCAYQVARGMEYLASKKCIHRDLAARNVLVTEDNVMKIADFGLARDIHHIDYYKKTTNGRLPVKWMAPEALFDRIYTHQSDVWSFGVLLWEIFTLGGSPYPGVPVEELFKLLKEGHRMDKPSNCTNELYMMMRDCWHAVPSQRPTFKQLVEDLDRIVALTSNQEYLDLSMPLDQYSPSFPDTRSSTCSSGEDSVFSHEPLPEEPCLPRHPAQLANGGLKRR

AurB, sequence (Q96GD4 whole entry): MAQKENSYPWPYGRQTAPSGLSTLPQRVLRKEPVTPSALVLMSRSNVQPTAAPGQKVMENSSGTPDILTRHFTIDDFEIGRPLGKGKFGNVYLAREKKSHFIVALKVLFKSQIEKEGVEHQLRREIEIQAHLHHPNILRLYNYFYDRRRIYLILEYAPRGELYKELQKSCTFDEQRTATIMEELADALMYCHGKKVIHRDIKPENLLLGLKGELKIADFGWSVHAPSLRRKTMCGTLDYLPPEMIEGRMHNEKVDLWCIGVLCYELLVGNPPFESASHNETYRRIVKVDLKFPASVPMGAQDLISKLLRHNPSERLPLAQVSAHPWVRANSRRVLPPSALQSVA

In the case of `CCc1cccc(CC)c1NC(=O)N1Cc2n[nH]c(NC(=O)c3ccc(N4CCN(C)CC4)cc3)c2C1` [PHA-680632], the “second wave of ciliary disassembly, at the time of mitosis” value (hTERT-RPE1 cells; 500 nM, 18-24 hours after serum) is reported as “completely eliminated”, the “disassembly of cilia after serum stimulation” value (hTERT-RPE1 cells; cells pre-treated for 3 hours with 500 nM, tracked 24 hours post serum) is reported as “strongly reduced” and the “HEF1 phosphorylation (115 kDa form)” value (AurA) is reported as “blocks”. For the same compound, the “appearance of T288-phospho-AurA” value (AurA) was “blocks appearance”, the AurA-HDAC6 coimmunoprecipitation (AurA-HDAC6) was “not eliminated” and the IC50 (AurB) was 0.185 µM. The IC50 (FGFR1) was 0.39 µM.
